Results from article PMC12420824, “Discovery of a selective alpha-kinase 1 inhibitor for the rare genetic disease ROSAH syndrome” (Nature Communications, 2025).

Legend:
Conditions in all cases: read-out: % Enzyme Activity (relative to DMSO control), 10 uM
TBK1 = TBK1 (Homo sapiens, UniProt Q9UHD2); experiment: HotSpot kinase assay
Source text: (§1) Additionally, a 10-dose dilution series of staurosporine and other enzyme-appropriate compounds were included as positive control inhibitors.

CK1a1L = CK1a1L (Homo sapiens, UniProt Q8N752); experiment: HotSpot kinase assay
PKCd = PKCd (Homo sapiens, UniProt Q05655); experiment: HotSpot kinase assay
NEK5 = NEK5 (Homo sapiens, UniProt Q6P3R8); experiment: HotSpot kinase assay
Source text: as §1

Aurora B = Aurora B (Homo sapiens, UniProt Q96GD4); experiment: HotSpot kinase assay
Aurora B, sequence (Q96GD4 whole entry): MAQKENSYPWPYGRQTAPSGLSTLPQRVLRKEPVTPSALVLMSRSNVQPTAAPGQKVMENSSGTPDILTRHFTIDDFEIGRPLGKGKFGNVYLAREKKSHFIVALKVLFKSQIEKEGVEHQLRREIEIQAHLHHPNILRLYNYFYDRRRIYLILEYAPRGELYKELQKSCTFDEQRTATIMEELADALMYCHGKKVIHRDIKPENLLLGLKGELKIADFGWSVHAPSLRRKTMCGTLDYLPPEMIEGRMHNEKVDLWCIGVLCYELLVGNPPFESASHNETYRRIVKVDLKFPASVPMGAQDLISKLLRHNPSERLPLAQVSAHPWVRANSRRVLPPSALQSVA
Source text: as §1

NEK7 = NEK7 (Homo sapiens, UniProt Q8TDX7); experiment: HotSpot kinase assay
Source text: as §1

EGFR = EGFR (Homo sapiens, UniProt P00533); experiment: HotSpot kinase assay
Source text: as §1

PKCzeta = PKCzeta (Homo sapiens, UniProt Q05513); experiment: HotSpot kinase assay
PKCzeta, sequence (Q05513 whole entry): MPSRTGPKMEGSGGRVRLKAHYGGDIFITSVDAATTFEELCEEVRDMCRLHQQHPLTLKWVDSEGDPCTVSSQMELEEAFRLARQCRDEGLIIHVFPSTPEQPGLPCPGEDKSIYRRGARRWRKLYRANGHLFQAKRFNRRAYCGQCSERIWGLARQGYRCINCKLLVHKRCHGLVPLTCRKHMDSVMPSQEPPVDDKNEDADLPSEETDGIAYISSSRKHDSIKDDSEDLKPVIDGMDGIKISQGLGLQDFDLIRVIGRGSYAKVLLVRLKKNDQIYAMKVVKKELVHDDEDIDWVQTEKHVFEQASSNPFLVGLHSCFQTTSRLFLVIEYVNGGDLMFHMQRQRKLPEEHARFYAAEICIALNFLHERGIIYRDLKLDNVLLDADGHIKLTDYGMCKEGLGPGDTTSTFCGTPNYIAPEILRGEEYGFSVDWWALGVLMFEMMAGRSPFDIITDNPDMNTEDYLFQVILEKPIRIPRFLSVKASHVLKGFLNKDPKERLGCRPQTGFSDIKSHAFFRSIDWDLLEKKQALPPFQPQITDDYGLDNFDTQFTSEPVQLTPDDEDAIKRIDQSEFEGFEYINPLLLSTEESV
Source text: as §1

TRKB = TRKB (Homo sapiens, UniProt Q16620); experiment: HotSpot kinase assay
MRCKb/CDC42BPB = MRCKb/CDC42BPB (Homo sapiens, UniProt Q9Y5S2); experiment: HotSpot kinase assay
MRCKb/CDC42BPB, sequence (Q9Y5S2 whole entry): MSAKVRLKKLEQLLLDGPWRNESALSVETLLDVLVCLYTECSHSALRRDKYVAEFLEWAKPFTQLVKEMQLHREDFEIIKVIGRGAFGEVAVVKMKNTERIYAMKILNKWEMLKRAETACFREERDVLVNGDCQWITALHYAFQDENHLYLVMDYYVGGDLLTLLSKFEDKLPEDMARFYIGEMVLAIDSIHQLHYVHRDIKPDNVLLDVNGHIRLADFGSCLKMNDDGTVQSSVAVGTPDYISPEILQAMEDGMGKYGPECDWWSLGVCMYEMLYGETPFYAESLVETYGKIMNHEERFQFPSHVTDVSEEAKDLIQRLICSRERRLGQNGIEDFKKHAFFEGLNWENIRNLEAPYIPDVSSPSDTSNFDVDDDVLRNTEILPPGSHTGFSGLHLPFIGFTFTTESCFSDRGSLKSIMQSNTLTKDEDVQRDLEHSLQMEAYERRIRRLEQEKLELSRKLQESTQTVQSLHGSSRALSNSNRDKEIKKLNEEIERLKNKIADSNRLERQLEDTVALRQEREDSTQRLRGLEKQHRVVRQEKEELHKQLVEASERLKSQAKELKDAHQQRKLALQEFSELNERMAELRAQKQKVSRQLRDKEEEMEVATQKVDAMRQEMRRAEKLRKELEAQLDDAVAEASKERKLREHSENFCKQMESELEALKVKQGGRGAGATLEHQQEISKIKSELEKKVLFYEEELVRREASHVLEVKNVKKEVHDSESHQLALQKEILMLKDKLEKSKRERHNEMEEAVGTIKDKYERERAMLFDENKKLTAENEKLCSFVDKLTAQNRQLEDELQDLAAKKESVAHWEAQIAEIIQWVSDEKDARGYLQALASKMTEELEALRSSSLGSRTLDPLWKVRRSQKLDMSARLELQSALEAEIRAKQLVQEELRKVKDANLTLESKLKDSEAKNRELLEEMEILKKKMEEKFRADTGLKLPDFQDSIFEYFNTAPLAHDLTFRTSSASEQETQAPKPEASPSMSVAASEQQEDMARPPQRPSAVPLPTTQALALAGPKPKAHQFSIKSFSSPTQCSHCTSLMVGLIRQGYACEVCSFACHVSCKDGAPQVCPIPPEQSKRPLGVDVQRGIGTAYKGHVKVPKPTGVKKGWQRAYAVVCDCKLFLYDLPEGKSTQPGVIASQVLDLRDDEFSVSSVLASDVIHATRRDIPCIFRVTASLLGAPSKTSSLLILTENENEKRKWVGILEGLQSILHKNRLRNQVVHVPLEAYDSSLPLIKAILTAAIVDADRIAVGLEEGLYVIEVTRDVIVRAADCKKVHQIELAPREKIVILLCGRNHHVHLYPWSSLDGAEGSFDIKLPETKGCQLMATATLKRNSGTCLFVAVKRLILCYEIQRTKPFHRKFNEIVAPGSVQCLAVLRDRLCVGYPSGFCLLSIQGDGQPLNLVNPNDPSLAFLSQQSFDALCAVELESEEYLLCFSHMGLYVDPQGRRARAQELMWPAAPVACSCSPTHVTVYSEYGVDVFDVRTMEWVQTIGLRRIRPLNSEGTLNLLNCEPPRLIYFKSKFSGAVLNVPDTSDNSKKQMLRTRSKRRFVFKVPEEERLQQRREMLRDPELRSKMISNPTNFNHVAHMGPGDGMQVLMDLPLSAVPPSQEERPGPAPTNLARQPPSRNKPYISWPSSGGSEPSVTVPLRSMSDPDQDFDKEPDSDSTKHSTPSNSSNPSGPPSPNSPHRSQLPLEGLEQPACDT

PAK4 = PAK4 (Homo sapiens, UniProt O96013); experiment: HotSpot kinase assay
Source text: as §1

MNK2 = MNK2 (Homo sapiens, UniProt Q9HBH9); experiment: HotSpot kinase assay
CHK2 = CHK2 (Homo sapiens, UniProt O96017); experiment: HotSpot kinase assay
STK22D/TSSK1 = STK22D/TSSK1 (Homo sapiens, UniProt Q9BXA7); experiment: biochemical
Source text: as §1

PBK/TOPK = PBK/TOPK (Homo sapiens, UniProt Q96KB5); experiment: HotSpot kinase assay
Source text: as §1

EPHA1 = EPHA1 (Homo sapiens, UniProt P21709); experiment: HotSpot kinase assay
EPHA1, sequence (P21709 26-976): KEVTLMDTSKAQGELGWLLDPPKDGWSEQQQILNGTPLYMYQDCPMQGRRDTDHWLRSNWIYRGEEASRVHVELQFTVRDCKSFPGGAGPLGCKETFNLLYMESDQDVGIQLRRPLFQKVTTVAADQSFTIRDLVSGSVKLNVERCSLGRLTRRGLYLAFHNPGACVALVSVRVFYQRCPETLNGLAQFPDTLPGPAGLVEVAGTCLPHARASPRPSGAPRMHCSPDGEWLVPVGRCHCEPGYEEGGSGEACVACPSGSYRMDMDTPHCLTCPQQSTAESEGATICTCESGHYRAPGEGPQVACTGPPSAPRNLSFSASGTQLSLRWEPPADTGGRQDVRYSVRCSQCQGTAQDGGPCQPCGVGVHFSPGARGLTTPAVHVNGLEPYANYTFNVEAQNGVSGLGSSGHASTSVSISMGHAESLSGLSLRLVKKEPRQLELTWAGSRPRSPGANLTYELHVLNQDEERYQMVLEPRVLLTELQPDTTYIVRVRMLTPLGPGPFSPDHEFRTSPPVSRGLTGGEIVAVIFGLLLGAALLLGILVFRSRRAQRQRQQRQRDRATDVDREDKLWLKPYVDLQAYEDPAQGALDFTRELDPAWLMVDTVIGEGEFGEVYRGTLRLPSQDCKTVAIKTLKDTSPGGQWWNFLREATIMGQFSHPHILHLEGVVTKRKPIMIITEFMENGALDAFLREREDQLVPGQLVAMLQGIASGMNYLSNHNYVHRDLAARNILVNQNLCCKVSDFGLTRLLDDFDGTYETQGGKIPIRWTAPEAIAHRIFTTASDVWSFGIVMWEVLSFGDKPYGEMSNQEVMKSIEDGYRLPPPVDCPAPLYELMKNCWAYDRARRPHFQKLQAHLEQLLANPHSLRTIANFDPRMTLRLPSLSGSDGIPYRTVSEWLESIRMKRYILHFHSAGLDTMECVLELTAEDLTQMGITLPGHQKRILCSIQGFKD

FES/FPS = FES/FPS (Homo sapiens, UniProt P07332); experiment: HotSpot kinase assay
MLK2/MAP3K10 = MLK2/MAP3K10 (Homo sapiens, UniProt Q02779); experiment: HotSpot kinase assay
Source text: as §1

HIPK2 = HIPK2 (Homo sapiens, UniProt Q9H2X6); experiment: HotSpot kinase assay
Source text: as §1

PKCeta = PKCeta (Homo sapiens, UniProt P24723); experiment: HotSpot kinase assay
Source text: as §1

SLK/STK2 = SLK/STK2 (Homo sapiens, UniProt Q9H2G2); experiment: HotSpot kinase assay
SLK/STK2, sequence (Q9H2G2 whole entry): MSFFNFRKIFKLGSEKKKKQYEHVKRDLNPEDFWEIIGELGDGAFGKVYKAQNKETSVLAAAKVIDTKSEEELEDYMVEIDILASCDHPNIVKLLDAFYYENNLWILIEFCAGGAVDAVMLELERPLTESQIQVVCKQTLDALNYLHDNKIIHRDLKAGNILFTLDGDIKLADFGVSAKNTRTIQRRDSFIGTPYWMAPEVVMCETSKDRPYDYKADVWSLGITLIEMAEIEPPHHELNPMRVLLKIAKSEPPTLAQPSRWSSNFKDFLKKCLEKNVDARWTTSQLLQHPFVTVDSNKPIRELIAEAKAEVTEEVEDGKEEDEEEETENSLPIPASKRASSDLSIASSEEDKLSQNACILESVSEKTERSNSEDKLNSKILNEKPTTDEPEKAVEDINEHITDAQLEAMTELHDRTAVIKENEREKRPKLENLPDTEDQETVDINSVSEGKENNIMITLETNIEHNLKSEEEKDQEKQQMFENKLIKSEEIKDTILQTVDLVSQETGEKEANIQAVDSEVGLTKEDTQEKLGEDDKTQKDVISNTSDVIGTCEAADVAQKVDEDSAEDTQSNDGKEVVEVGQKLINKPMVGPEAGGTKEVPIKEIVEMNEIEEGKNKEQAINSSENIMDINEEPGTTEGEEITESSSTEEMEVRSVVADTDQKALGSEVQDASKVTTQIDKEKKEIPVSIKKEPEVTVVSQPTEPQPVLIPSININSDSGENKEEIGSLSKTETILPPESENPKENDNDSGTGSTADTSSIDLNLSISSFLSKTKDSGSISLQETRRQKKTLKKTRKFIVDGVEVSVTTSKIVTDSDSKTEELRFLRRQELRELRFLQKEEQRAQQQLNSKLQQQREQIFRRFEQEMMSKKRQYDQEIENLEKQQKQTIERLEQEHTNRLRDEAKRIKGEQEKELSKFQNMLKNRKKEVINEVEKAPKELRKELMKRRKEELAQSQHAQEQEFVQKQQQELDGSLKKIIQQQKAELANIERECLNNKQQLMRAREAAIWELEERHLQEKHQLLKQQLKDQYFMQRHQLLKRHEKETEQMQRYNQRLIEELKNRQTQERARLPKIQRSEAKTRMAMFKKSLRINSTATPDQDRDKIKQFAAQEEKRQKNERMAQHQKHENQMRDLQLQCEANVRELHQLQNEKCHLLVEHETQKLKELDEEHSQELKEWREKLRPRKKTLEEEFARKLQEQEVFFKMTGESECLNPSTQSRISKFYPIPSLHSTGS
Source text: as §1

ERN2/IRE2 = ERN2/IRE2 (Homo sapiens, UniProt Q76MJ5); experiment: HotSpot kinase assay
Source text: as §1

AMPK(A1/B1/G1) = AMPK(A1/B1/G1) (Homo sapiens, UniProt Q13131); experiment: HotSpot kinase assay
Source text: as §1

TYK1/LTK = TYK1/LTK (Homo sapiens, UniProt P29376); experiment: HotSpot kinase assay
AMPK(A1/B2/G1) = AMPK(A1/B2/G1) (Homo sapiens, UniProt Q13131); experiment: HotSpot kinase assay
Source text: as §1

MINK/MINK1 = MINK/MINK1 (Homo sapiens, UniProt Q8N4C8); experiment: HotSpot kinase assay
Source text: as §1

AMPK(A2/B2/G2) = AMPK(A2/B2/G2) (Homo sapiens, UniProt P54646); experiment: HotSpot kinase assay
Source text: as §1

MEKK1 = MEKK1 (Homo sapiens, UniProt Q13233); experiment: HotSpot kinase assay

## C#C[C@@](C)(c1ccc(Cl)cc1)c1csc(NC(=O)c2c(F)cc(N3CCNCC3)cc2F)n1 (stereo in doubt) [DF-003]
TBK1
  remaining activity at 10 µM: 95.4%
CK1a1L
  remaining activity at 10 µM: 97.2%
PKCd
  remaining activity at 10 µM: 69.8%
NEK5
  remaining activity at 10 µM: 83.4%
Aurora B
  remaining activity at 10 µM: 76.5%
NEK7
  remaining activity at 10 µM: 118%
EGFR
  remaining activity at 10 µM: 93.7%
PKCzeta
  remaining activity at 10 µM: 89.4%
TRKB
  remaining activity at 10 µM: 74.4%
MRCKb/CDC42BPB
  remaining activity at 10 µM: 94.7%
PAK4
  remaining activity at 10 µM: 102%
MNK2
  remaining activity at 10 µM: 90.7%
CHK2
  remaining activity at 10 µM: 89.9%
STK22D/TSSK1
  remaining activity at 10 µM: 94.2%
PBK/TOPK
  remaining activity at 10 µM: 90.5%
EPHA1
  remaining activity at 10 µM: 119%
FES/FPS
  remaining activity at 10 µM: 71.1%
MLK2/MAP3K10
  remaining activity at 10 µM: 67.5%
HIPK2
  remaining activity at 10 µM: 101%
PKCeta
  remaining activity at 10 µM: 75.3%
SLK/STK2
  remaining activity at 10 µM: 89%
ERN2/IRE2
  remaining activity at 10 µM: 62.1%
AMPK(A1/B1/G1)
  remaining activity at 10 µM: 119%
TYK1/LTK
  remaining activity at 10 µM: 105%
AMPK(A1/B2/G1)
  remaining activity at 10 µM: 79.6%
MINK/MINK1
  remaining activity at 10 µM: 98.7%
AMPK(A2/B2/G2)
  remaining activity at 10 µM: 83%
MEKK1
  remaining activity at 10 µM: 99.9%
